{
  "source": "patent US20160139132A1",
  "about": "“Method of Diagnosis or Prognosis of a Neoplasm Comprising Determining the Level of Expression of a Protein in Stromal Cells Adjacent to the Neoplasm” (Thomas Jefferson University, priority 2009, published 2016)",
  "key": {"breast cancer patients": {"tested_on": "breast cancer patients", "assay": "Progression-free survival of breast cancer patients (tissue microarray cohort) by stromal Cav-1 and tamoxifen use", "format": "in vivo, human", "settings": "Tamoxifen use Yes vs No (ref); adjusted for T stage, N stage, Cav-1 score", "protocol": "Breast tissues for tissue microarray construction were obtained from the Surgical Pathology files at the University of Michigan with Institutional Review Board (IRB) approval. The TMA contained tissues derived from 154 largely consecutive patients with invasive carcinomas of the breast, with follow-up information treated at the University of Michigan from 1987-1991. Clinical and pathological variables were determined following well-established criteria. All invasive carcinomas were graded according to the method described by Elston and Ellis 17; Lymphovascular Invasion (LV1) was classified as either present or absent. […]\nCav-1 expression in the tumor stroma was assessed by employing a standard immuno-peroxidase method (DakoCytornation LSAB2 System-HRP, Carpinteria, Calif.), using rabbit polyclonal antl-Cav-1 TgG (N-20; directed against Ntenninal residues 2-21 of human Cav-1; Santa Cruz Biotechnology, Santa Cruz, Calif.; dilution 1:500). The staining was scored semi-quantitatively as negative (0; no staining), weak (1; either diffuse weak staining or strong staining in less than 30% of stromal cells per core) and strong (2; defined as strong staining of 30% or more of the stromal cells). […]\nFor each patient, the date of breast cancer diagnosis, date of last follow-up, vital status at last follow-up, causes of death (breast cancer or other), and breast cancer recurrence, were recorded. […]"}, "[1]": {"tested_on": "Cav-1 in stromal fibroblasts co-cultured with MCF-7 cells", "assay": "Co-culture of MCF-7 breast cancer cells with normal human fibroblasts: Cav-1 down-regulation", "format": "cell-based", "settings": "co-culture with MCF-7 cells", "excerpt": "Using this system, it was observed that within 5 days of co-culture MCF-7 cells down-regulate the expression of Cav-1 in adjacent stromal fibroblasts. This occurs via the degradation of Cav-1 in lysosomal structures, and can be inhibited by chloroquine, an anti-lysomal agent. Most importantly, MCF-7 cells induce oxidative stress in the adjacent fibroblasts via the over-production of reactive oxygen species (ROS). ROS, in turn, is known to stabilize and activate certain transcription factors, such as NFkB and HIF. NFkB- and HIF-are the master regulators of “inflammation” and “hypoxia/aerobic glycolysis” in the tumor microenvironment. Thus, in order to detect the activation of NFkB and HIF only in the fibroblast cell population, two different fibroblast cell lines engineered to express either a NFkB-luciferase or HIF-luciferase transcriptional reporter were used. […] As such, NFkB is activated first, while HIF is activated on day 4 and day 5 of coculture, coincident with Cav-1 down-regulation. Thus, cancer cells induce the Warburg effect in adjacent stromal fibroblasts via the activation of NFkB and HIF-target genes, leading to inflammation and aerobic glycolysis. These findings provide a mechanistic basis for the “Reverse Warburg Effect”, and a new high-throughput drug-screening assay for the identification of novel compounds that block the “Reverse Warburg Effect”."}, "neovascularization": {"tested_on": "neovascularization", "settings": "Oikawa (1988); cited from earlier work"}, "[2]": {"tested_on": "MDA-MB-231 breast cancer cells co-injected with Cav-1-deficient stromal fibroblasts", "assay": "Human tumor xenograft: nude mice co-injected with MDA-MB-231 cells and Cav-1-deficient stromal fibroblasts, treated with glycolysis inhibitors", "format": "in vivo", "settings": "given individually, dosage of 200 mg/kg", "description": "Treatment with Glycolysis Inhibitors Functionally Blocks Cancer-Associated Fibroblast Induced Breast Cancer Tumor Growth. […] Mice co-injected with Cav-1-deficient stromal fibroblasts and MDA-MB-231 breast cancer cells were treated with glycolysis inhibitors. The efficacy of two well-established glycolysis inhibitors, namely 2-DG (2-deoxy-D-glucose) and DCA (dichloro-acetate), individually or in combination were tested.\nTo provide additional experimental validation for the idea that an absence of stromal Cav-1 promotes breast cancer tumor growth and angiogenesis, a 2-component cell-system using xenografts in immuno-deficient female nude mice was developed. Briefly, the flanks of nude mice were injected with a mixture of 1) MDA-MB-231 cells (a highly aggressive human breast cancer cell line; 1.0×10-6 cells) and 2) stromal fibroblasts, derived from either WT or Cav-1 (−/−) null mice (0.3×10-6 cells). After 3 weeks, nude mice were sacrificed and breast cancer-derived tumors were subjected to analysis for growth (tumor weight and volume measurements) and immuno-histochemistry with markers of angiogenesis, such as CD31 (a.k.a, PECAM1).\nIn this two-component system, nude mice are co-injected with i) human breast cancer ceils (MDA-MB-231), and ii) stromal fibroblasts (WT versus Cav-1 (−/−) deficient). […]"}, "[3]": {"tested_on": "PD-ECGF/TP transfected cells", "settings": "transfected compared with untransfected wild-type cells; Haraguchi (1993); cited from earlier work"}},
  "data": [
    {"smiles": "CC/C(=C(\\c1ccccc1)c1ccc(OCCN(C)C)cc1)c1ccccc1", "note": "[Tamoxifen]", "values": [
      {"measurement": "Cox regression of Progression-Free Survival (PFS): Coefficient", "setting": "breast cancer patients", "value": "−0.476"}
    ]},
    {"smiles": "CCN(CC)CCCC(C)Nc1ccnc2cc(Cl)ccc12", "note": "(stereo not drawn) [chloroquine]", "values": [
      {"measurement": "degradation of Cav-1 in lysosomal structures (Cav-1 down-regulation in adjacent stromal fibroblasts)", "setting": "[1]", "value": "inhibited"}
    ]},
    {"smiles": "CC(=O)O[C@]1(C(C)=O)CC[C@H]2[C@@H]3C[C@H](C)C4=CC(=O)CC[C@]4(C)[C@H]3CC[C@@]21C", "note": "[MPA, medroxyprogesterone acetate]", "values": [
      {"measurement": "neovascularization", "setting": "neovascularization", "value": "potently inhibited"}
    ]},
    {"smiles": "O=CC[C@@H](O)[C@H](O)[C@H](O)CO", "note": "[2-DG, 2-deoxy-D-glucose]", "values": [
      {"measurement": "effect on tumor growth", "setting": "[2]", "value": "no effect"}
    ]},
    {"smiles": "O=C(O)C(Cl)Cl", "note": "[DCA, dichloro-acetate]", "values": [
      {"measurement": "effect on tumor growth", "setting": "[2]", "value": "no effect"}
    ]},
    {"smiles": "C[C@H]1O[C@@H](n2cc(F)c(=O)[nH]c2=O)[C@H](O)[C@@H]1O", "note": "[5′DFUR, 5′-deoxy-5-fluorouridine]", "values": [
      {"measurement": "antitumor effect", "setting": "[3]", "value": "dramatic enhancement of antitumor effect"}
    ]}
  ]
}
